Laboratory results as given in patent US20240366560A1, “SMALL MOLECULE TREATMENT OF FATTY LIVER DISEASE AND HCC” (ScandiEdge Therapeutics AB, priority 2021, published 2024).

How the values were obtained:
PKLR [1] = assay: PKLR protein level by western blot in steatosis-induced HepG2, 7-day drug treatment; type: cell-based; conditions: steatosis-induced HepG2, 7 days of drug treatment, P<0.05, FIG. 2B
Experimental: WT HepG2 was included in this study and cultured by Roswell Park Memorial Institute (RPMI, R2405, Sigma Aldrich) 1640 Medium with 10% fetal bovine serum (FBS) and 1% penicillin-streptomycin (PS). To induce a steatosis model into WT HepG2 cells, high glucose Dulbecco's Modified Eagle Media (DMEM, D0822/D5671, Sigma-Aldrich) containing 10% FBS and 1% PS was used as medium for one week, together with 10 μg/mL insulin and 10 μM T0901317. All of cells were incubated in the incubator with 5% CO2 and 37° C. (Thermo SCIENTIFIC). Fresh medium was provided every two days.
As for drug-screening, different numbers of HepG2 cells were seeded for distinct experiments. More in details, 40,000 cells and 500,000 cells were used for 2-day-drug treatment in 96-well-plate and 6-well plate, respectively, while 80,000 cells and 300,000 cells were used for one-week drug treatment in 96-well plate and 6-well plate, respectively. Detailed drug dosages could be found in FIG. 5. Fresh medium was provided every two days.
Protein content levels were detected by western blot. After the respective treatment of drugs, the cell pellets were lysed in cell lytic M, followed by protein extraction from supernatant (10 min, 13,000r/min centrifuge). Extracted cell lysate was stored in −20° C. Proteins were quantified through Bovine albumin serum (BAS) standard curve with protein assay dye reagent (BIO-RAD). The proteins were separated by SDS-PAGE with 100v in 90 min by mini-protein TGX precast gels (4-15%, 15 wells, 15 μl/well, BIO-RAD), and then transfer to Mini PVDF transfer package through transfer system (Transfer-Turbo, BIO-RAD). After 30 min blocking with 5% skim milk in cold room (4° C.) and washing with TBST, membrane was cut by the size of interested proteins. Primary antibodies were added into the corresponding membrane sections for overnight binding. Then the membranes were washed with TBST, and the secondary antibodies were incubated for 1 h in cold room. The following antibody were used: (Goat pAb to Rb lg, ab205718, abcam; Rb pAb to beta-actin, ab8227, abcam; anti-pklr, HPA006653, SIGMA; Rb pAb to fatty acid synthase, ab99539, abcam). The bindings were imaged by immunostaining and machine (ImageQuant LAS 500). All antibodies were purchased from Abcam online, and βactin was used as global normalized protein. After measurement, the strength of signal for each protein was quantified by ImageJ. The background noise was removed, and all results were normalized by the levels of β-actin.
To further analyse the effect of these drugs on lipid accumulation via the DNL pathway, steatosis was induced to HepG2 by treating the cells with high glucose medium (DMEM), insulin and T0901317 (Hansmannel et al., 2006). […] Therefore, the effects of these two drugs on the de novo synthesis of lipids were investigated based on the steatosis-induced HepG2 model. […] Taken together, it was shown that BX-912 and JNK-IN-5A effectively alleviate the protein expression of PKLR and FASN as well as TG levels in HepG2 cell lines, and thus, it was decided to perform in vivo evaluations to test the effect of these two drugs.

steatosis-induced HepG2 = assay: Triglyceride assay in steatosis-induced HepG2; type: cell-based; conditions: steatosis-induced HepG2, 7 days of drug treatment, FIG. 2D
Experimental: All of cells were incubated in the incubator with 5% CO2 and 37° C. (Thermo […]). Fresh medium was provided every two days.

Sprague Dawley male rats [2] = assay: In vivo biosafety study: micronucleus frequencies (MNPCEs) in blood; design: species or system rat; conditions: 30 mg/kg oral, 7 days, CHOW, p>0.05
Experimental: (§1) In vivo biosafety studies. Healthy Sprague Dawley male rats (12 weeks old, 250-280 g) were obtained from Atatürk University Experimental Research Center (ATADEM, Erzurum Turkey) and housed under standard environmental conditions (temperature 20° C.-25° C., humidity 50±20% and 12-hour light/dark diurnal cycle). Food and water were available ad libitum. Rats were randomly separated into one control group and two experimental groups (30 mg/kg/day BX-912 or JNK-IN-5A, n=5). BX-912 and JNK-IN-5A were dissolved in DMSO and orally administrated using oral gavage for 7 days. The control group were received the same amount of vehicle solution only.
(§2) After 7 days, rats were anaesthetized, and blood samples were collected from the abdominal aorta for biochemical and haematological analysis. The plasma was separated and stored at −80° C. for further analysis. Major organs such as heart, kidney, liver, muscle, adipose, intestine (duodenum, ileum, jejunum), pancreas, colon, and stomach were collected from all the animals for further analysis. Selected organs were fixed in 10% neutral buffered formalin for histopathological examination.
To evaluate the potential toxicity of BX-912 and JNK-IN-5A in animals, three groups of 12-week-old rats (n=5) were raised. The first group was fed with CHOW (Ctrl) for seven days. The second group was fed with CHOW plus BX-912 (30 mg/kg) for seven days. […]

Sprague Dawley male rats [3] = assay: In vivo biosafety study: histopathological examination of major organs; design: species or system rat; conditions: 30 mg/kg oral, 7 days, CHOW
Experimental: as §1, §2
Histopathological examination. The liver tissues were fixed in 10% buffered formaldehyde solution. After fixation, the tissues were passed through graded alcohol and xylene series and embedded in paraffin blocks. 5 micrometer thick sections were taken serially from the paraffin blocks. Histopathological changes were evaluated by performing hematoxylin eosin staining on the sections taken. Sections were evaluated according to histopathological findings as none (−), mild (+), moderate (++) and severe (+++).
To evaluate the potential toxicity of BX-912 and JNK-IN-5A in animals, three groups of 12-week-old rats (n=5) were raised. The first group was fed with CHOW (Ctrl) for seven days. The second group was fed with CHOW plus BX-912 (30 mg/kg) for seven days. The third group was fed with CHOW plus JNK-IN-5A (30 mg/kg) for seven days. After the seven days, all rats were sacrificed, and tissue samples from major organs and blood samples were collected for biosafety evaluation.

HepG2 cells = assay: MTT assay of liver cancer cell viability; type: cell-based; conditions: HepG2, 10 μM, two days, FIG. 4
Experimental: HepG2 cells were seeded into a 96 well plate at 20,000 cells per well as hexaplicated. Next day, treatment of the cells with 10 μM drugs (BX-912 and JNK-IN-5A) was started. The treatment lasted for two days. Cell viability was measured using MTT assay. Cells were incubated with 5 mg/ml MTT 3-4 5-DIMETHYLTHIAZ ([…] Thermo fisher) in PBS for 2 h. Microplate reader measured cell viability O.D at 570 nm.

Pklr [4] = assay: In vivo efficacy study in rats: hepatic Pklr expression; conditions: rat animal study
Experimental: In vivo efficacy studies. […] The HSD group were treated with vehicle solution only.

Structure (SMILES)	protein expression level of PKLR (PKLR [1])	content of TGs (normalized by cell viability) (steatosis-induced HepG2)	frequencies of MNPCEs compared to Ctrl animals (Sprague Dawley male rats [2])	histological structure of kidney, small intestine, large intestine, stomach, heart, pancreas, muscle tissues and liver (Sprague Dawley male rats [3])	side effects on the rats (overall conclusion) (Sprague Dawley male rats [3])	viability of liver cancer cells in the MTT assay (HepG2 cells)	hepatic Pklr expression in vivo (Pklr [4])
N#Cc1c(NC(=O)c2cccc3ccccc23)sc2c1CCCC2 [JNK-IN-5A, N-(3-cyano-4,5,6,7-tetrahydrobenzo [b]thien-2-yl)-1-naphthalenecarboxamide]	significantly decreased	significantly decreased	not statistically different	normal histological structures	no side effects	significantly reduced	significantly decreased
O=C(Nc1cccc(Nc2ncc(Br)c(NCCc3cnc[nH]3)n2)c1)N1CCCC1 [BX-912, N-[3-[[5-bromo-4-[[2-(1H-imidazol-5-yl)ethyl]amino]-2-pyrimidinyl]amino]phenyl]-1-pyrrolidinecarboxamide]	significantly decreased	significantly decreased	not statistically different	normal histological structures	no side effects	significantly reduced	significantly decreased
